Results: article PMC8513058, “Synthesis and Evaluation of Novel 1,2,6-Thiadiazinone Kinase Inhibitors as Potent Inhibitors of Solid Tumors” (Molecules, 2021)
pIC50: −log10 of the molar value.

Legend:
[1] = design: method as in PMID 29783765; conditions: previously assessed; cited from earlier work
[2] = test system: 5637 cells; assay: Cancer cell line viability screen (alamarBlue), 5637; conditions: 72 h, read-out: IC50 5637
Procedure: (§1) This included pancreatic, bladder, prostate, breast, chordoma, and lung cancer cell lines while a skin fibroblast cell line was used as a toxicity control [33, 34, 35, 36].
(§2) DU145 and MCF-7 cells were cultured in MEM medium supplemented with 10% FBS and 1% penicillin/streptomycin. […] Cells were seeded in 384-well plates and were treated with test compound in quadruplicate 24 h after plating. Cell viability was assessed at 72 h using alamarBlue (ThermoFisher, Waltham, MA, USA). […] IC50 values were determined by nonlinear regression using GraphPad PrismTM software (GraphPad Software Inc., San Diego, CA, US).

[3] = test system: PANC-1 cells; assay: Cancer cell line viability screen (alamarBlue), PANC1; conditions: Homo sapiens, PANC-1, 72 h, read-out: IC50 PANC1
Procedure: as §1, §2

[4] = test system: U-CH2 cells; assay: Cancer cell line viability screen (alamarBlue), UCH2; conditions: UCH2, 72 h, read-out: IC50 UCH2
Procedure: as §1
(§3) Cells were seeded in 384-well plates and were treated with test compound in quadruplicate 24 h after plating. Cell viability was assessed at 72 h using alamarBlue (ThermoFisher, Waltham, MA, USA). […] IC50 values were determined by nonlinear regression using GraphPad PrismTM software (GraphPad Software Inc., San Diego, CA, US).

[5] = test system: MCF-7 cells; assay: Cancer cell line viability screen (alamarBlue), MCF7; conditions: Homo sapiens, MCF7, 72 h, read-out: IC50 MCF7
Procedure: as §1, §2

[6] = test system: DU145 cells; assay: Cancer cell line viability screen (alamarBlue), DU145; conditions: Homo sapiens, DU-145, 72 h, read-out: IC50 DU145
Procedure: as §1, §2

[7] = test system: WS-1 cell line; assay: Toxicity control viability screen (alamarBlue), WS-1 skin fibroblasts; conditions: for pIC50: WS1, 72 h, read-out: IC50 WS-1
Procedure: as §1, §2

[8] = test system: A-431 cells; assay: Cancer cell line viability screen (alamarBlue), A431; conditions: Homo sapiens, A-431, 72 h, read-out: IC50 A431
Procedure: as §1, §3

[9] = test system: U-CH1 cells; assay: Cancer cell line viability screen (alamarBlue), UCH1; conditions: UCH1, 72 h, read-out: IC50 UCH1
Procedure: as §1, §3

[10] = test system: kinases in SUM159 cell lysates; assay: MIBS kinome profiling (MIB-MS competitive displacement); format: binding; conditions: 1 μM compound vs DMSO, SUM159 lysate; for kinome profile: 350-400 kinases detected
Procedure: We then assessed the kinome profile of thiadiazinones 16, 17, and 26 all at 1 μM using a multiplexed kinase inhibitor bead set and quantitative mass spectrometry for detection of kinase peptides (MIB-MS). The MIB-MS proteomics was able to detect between 350 and 400 kinases in the cell lysates and competitive displacement of specific kinases from the beads was used to determine the kinome profile of the thiadiazinone kinase inhibitors.
Previously described. Briefly, multiplexed inhibitor beads (MIBS) affinity chromatography/MS analysis: SUM159 cells were cultured in a 50:50 mixture of DMEM and Nutrient Mixture F-12 medium (Gibco) supplemented with 5% fetal bovine serum, 1% anti/anti, […] insulin, and […] hydrocortisone. Cells were maintained at 37 °C in a humidified 5% CO2 atmosphere. SUM159 cells were grown to 80% confluency, washed twice with PBS, and harvested by scraping cells in lysis buffer [50 mM HEPES, pH 7.5, 150 mM NaCl, 0.5% Triton X-100, 1 mM EDTA, 1 mM EGTA, 10 mM NaF, 2.5 mM Na3VO4, complete protease inhibitor cocktail (Roche, Basel, Switzerland), phosphatase inhibitor cocktail 2, and 3 (Sigma, St. Louis, MO, USA)]. Lysates were sonicated then clarified by centrifugation at 14000 V g for 15 min at 4 °C. Lysate was then filtered through a […] syringe filter and frozen at −80 °C until use. Protein concentration was quantified using a Bradford assay the day of the experiment. DMSO or the indicated concentration of 16, 17, and 26 were added to lysate containing 4 mg of total protein. Lysates were vortexed briefly then incubated for 30 min on ice. Kinases were affinity purified as previously described. Briefly, lysates were diluted to 1.33 mg mL^−1 with lysis buffer then NaCl concentration brought to 1 M.
Diluted lysates were passed over a mixture of […] of settled beads of each of the following inhibitors conjugated to ECH Sepharose beads: Purvalanol B, PP58, VI-16832, UNC21474A, UNC8088A, and […] of settled beads conjugated to CTx-0294885 and VI-16832 [69]. The kinase inhibitor–bead conjugates were previously equilibrated in high-salt buffer (50 mM HEPES pH 7.5, 1M NaCl, 0.5% Triton X-100, 1 mM EDTA, and 1 mM EGTA). MIBs columns were sequentially washed with high-salt buffer, low-salt buffer (50 mm HEPES pH 7.5, 150 mM NaCl, 0.5% Triton X-100, 1 mM EDTA, and 1 mM EGTA), and SDS buffer (50 mm HEPES pH 7.5, 150 mm NaCl, 0.5% Triton X-100, 1 mm EDTA, 1 mm EGTA, and 0.1% SDS). Proteins were eluted by boiling samples in elution buffer (100 mM Tris·HCl pH 6.8, 0.5% SDS, and 1% β-mercaptoethanol) for 15 min twice. Dithiothreitol (DTT) was added to a final concentration of 5 mm and samples were incubated at 60 °C for 25 min. Samples were then cooled to room temperature on ice and alkylated by adding iodoacetamide to a final concentration of 20 mm for 30 min in the dark at room temperature. Samples were then concentrated in 10K Amicon Ultra centrifugal concentrators (Millipore, Burlington, MA, USA) followed by methanol and chloroform precipitation of proteins. The final protein pellets were re-suspended in 50 mM HEPES pH 8.0 and incubated with trypsin at 37 °C overnight. Residual detergent was removed by three sequential ethyl acetate extractions then desalted using Pierce C18 spin columns (Thermo Scientific, Waltham, MA, USA) according to the manufacturer’s protocol.

Compound | stability [1] | pIC50 [2] | melting point | pIC50 [3] | pIC50 [4] | pIC50 [5] | pIC50 [6] | pIC50 [7] | pIC50 [8] | pIC50 [9] | kinases competitively displaced from the beads (hits) [10] | kinome profile [10] | IC50 WS-1 ([7]; skin fibroblast cell line, toxicity control, viability at 72 h, alamarBlue, average of 4 independent experiments)
O=c1c(Nc2ccccc2)nsnc1Nc1ccccc1 [3,5-Bis(phenylamino)-4H-1,2,6-thiadiazin-4-one] | stable to neutral, acidic, or slightly basic aqueous conditions, the presence of amine or thiol nucleophiles, and oxidizing and reducing conditions | – | – | – | – | – | – | – | – | – | – | – | –
CC(=O)c1cccc(Nc2nsnc(-c3ccnc4[nH]ccc34)c2=O)c1 [Compound 14, 3-[(3-Acetylphenyl)amino]-5-(1H-pyrrolo[2,3-b]pyridin-4-yl)-4H-1,2,6-thiadiazin-4-one] | – | 4.82 | 271 to 273 °C | < 4.00 | < 4.00 | < 4.00 | < 4.00 | 4.04 | < 4.00 | 4.24 | – | – | –
COc1cccc(Nc2nsnc(-c3ccnc4[nH]ccc34)c2=O)c1 [Compound 15, 3-[(3-Methoxyphenyl)amino]-5-(1H-pyrrolo[2,3-b]pyridin-4-yl)-4H-1,2,6-thiadiazin-4-one] | – | 4.82 | 257 to 258 °C | < 4.00 | < 4.00 | < 4.00 | < 4.00 | < 4.00 | < 4.00 | 4.17 | – | – | –
Cc1ccc(Nc2nsnc(-c3ccnc4[nH]ccc34)c2=O)cc1O [Compound 17, 3-[(3-Hydroxy-4-methylphenyl)amino]-5-(1H-pyrrolo[2,3-b]pyridin-4-yl)-4H-1,2,6-thiadiazin-4-one] | – | 5.68 | 292 to 293 °C | < 4.00 | < 4.00 | 4.85 | 4.64 | < 4.00 | < 4.00 | < 4.00 | AKT2, MAP2K4, MAP2K1, and STK35 being just below the threshold | narrow spectrum kinome profile | –
Cc1ccc(O)cc1Nc1nsnc(-c2ccnc3[nH]ccc23)c1=O [Compound 18, 3-[(5-Hydroxy-2-methylphenyl)amino]-5-(1H-pyrrolo[2,3-b]pyridin-4-yl)-4H-1,2,6-thiadiazin-4-one] | – | 4.26 | 304 to 305 °C | < 4.00 | < 4.00 | < 4.00 | < 4.00 | < 4.00 | < 4.00 | < 4.00 | – | – | –
O=c1c(-c2ccnc3[nH]ccc23)nsnc1N1CCOCC1 [Compound 19, 3-Morpholino-5-(1H-pyrrolo[2,3-b]pyridin-4-yl)-4H-1,2,6-thiadiazin-4-one] | – | < 4.00 | 256 to 257 °C | 4.96 | < 4.00 | 4.34 | 4.85 | < 4.00 | < 4.00 | < 4.00 | – | – | –
CN1CCN(c2nsnc(-c3ccnc4[nH]ccc34)c2=O)CC1 [Compound 20, 3-(4-Methylpiperazin-1-yl)-5-(1H-pyrrolo[2,3-b]pyridin-4-yl)-4H-1,2,6-thiadiazin-4-one] | – | < 4.00 | 195 to 196 °C | < 4.00 | – | < 4.00 | < 4.00 | – | – | – | – | – | –
CN1CCN(c2nsnc(Nc3ccnc4[nH]ccc34)c2=O)CC1 [Compound 21, 5-(4-Methylpiperazin-1-yl)-3-[(1H-pyrrolo[2,3-b]pyridin-4-yl)amino]-4H-1,2,6-thiadiazin-4-one] | – | < 4.00 | 286 to 287 °C | < 4.00 | < 4.00 | < 4.00 | 4.29 | < 4.00 | < 4.00 | 4.01 | – | – | –
CN1CCN(c2nsnc(Nc3ccc4[nH]ncc4c3)c2=O)CC1 [Compound 22, 3-[(1H-Indazol-5-yl)amino]-5-(4-methylpiperazin-1-yl)-4H-1,2,6-thiadiazin-4-one] | – | < 4.00 | 262 to 263 °C | < 4.00 | < 4.00 | 4.60 | 4.30 | 4.62 | < 4.00 | < 4.00 | – | – | –
O=c1c(Nc2ccc3[nH]ncc3c2)nsnc1-c1cccc(O)c1 [Compound 23, 5-(3-Hydroxyphenyl)-3-[(1H-indazol-5-yl)amino]-4H-1,2,6-thiadiazin-4-one] | – | < 4.00 | 282 to 283 °C | < 4.00 | < 4.00 | 4.04 | 4.08 | < 4.00 | < 4.00 | 4.15 | – | – | –
Cc1ccc(O)cc1-c1nsnc(Nc2ccc3[nH]ncc3c2)c1=O [Compound 24, 5-(5-Hydroxy-2-methylphenyl)-3-[(1H-indazol-5-yl)amino]-4H-1,2,6-thiadiazin-4-one] | – | < 4.00 | 268 to 269 °C | 4.59 | < 4.00 | 4.89 | 4.82 | < 4.00 | < 4.00 | 4.17 | – | – | no toxicity
COc1cccc(-c2nsnc(Nc3ccc4[nH]ncc4c3)c2=O)c1 [Compound 25, 3-[(1H-Indazol-5-yl)amino]-5-(3-methoxyphenyl)-4H-1,2,6-thiadiazin-4-one] | – | 4.89 | 220 to 221 °C | < 4.00 | 4.00 | 4.42 | < 4.00 | 4.15 | < 4.00 | 4.28 | – | – | –
O=c1c(Nc2ccc3[nH]ncc3c2)nsnc1-c1ccnc(F)c1 [Compound 26, 5-(2-Fluoropyridin-4-yl)-3-[(1H-indazol-5-yl)amino]-4H-1,2,6-thiadiazin-4-one] | – | 5.08 | 280 °C (dec.) | < 4.00 | < 4.00 | 4.30 | 5.24 | < 4.00 | < 4.00 | 4.08 | showing affinity for ACVR1B, ACVR2A, and STK35 | narrow spectrum kinome profile but was a weak inhibitor | –
